Results on three molecules are retold here after ChEMBL document CHEMBL1255361, “Differential antibiotic susceptibility of Mycobacterium abscessus variants in biofilms and macrophages compared to that of planktonic bacteria” (2008).

The MIC is the lowest concentration found to suppress growth.

The test system of experiment [1] is Mycobacteroides abscessus. Kind of experiment: Antimicrobial activity against Mycobacterium abscessus 390S assessed as inhibition of planktonic cell growth in replete medium. The experiment is classed as functional.
In experiment [2] the test system is Mycobacteroides abscessus. Kind of experiment: Bacteriostatic activity against Mycobacterium abscessus 390V infected in human monocyte-derived macrophage at 10 times MIC. The experiment is classed as functional, organism-based.
For experiment [3], the system named is Mycobacteroides abscessus. The experiment in a line: Antimicrobial activity against Mycobacterium abscessus 390R after 96 hrs. The experiment is classed as functional.
In experiment [4] the test system is Mycobacteroides abscessus. Kind of experiment: Antimicrobial activity against Mycobacterium abscessus 390S assessed as inhibition of planktonic cell growth in depleted medium. It counts as functional.
Experiment [5] deals with Mycobacteroides abscessus. The experiment in a line: Antimicrobial activity against Mycobacterium abscessus 390S. The experiment is classed as functional.
Experiment [6] deals with Mycobacteroides abscessus. Kind of experiment: Antimicrobial activity against Mycobacterium abscessus 390S assessed as inhibition of biofilm formation at 64 ug/ml after 24 hrs. The experiment is classed as functional.
Experiment [7] relates to Mycobacteroides abscessus. The experiment in a line: Antimicrobial activity against Mycobacterium abscessus 390S assessed as inhibition of resuspended biofilm formation in replete medium. It counts as functional.
Experiment [8] concerns Mycobacteroides abscessus. Kind of experiment: Bacteriostatic activity against Mycobacterium abscessus 390S assessed as inhibition of planktonic cell growth up to 1024 ug/ml after 24 hrs. It counts as functional, organism-based.
The subject of experiment [9] is Mycobacteroides abscessus. The experiment in a line: Antimicrobial activity against Mycobacterium abscessus 390V after 96 hrs. The experiment is classed as functional.
Experiment [10] concerns Mycolicibacterium fortuitum. Kind of experiment: Antimicrobial activity against Mycobacterium fortuitum. The experiment is classed as functional.
The subject of experiment [11] is Mycobacteroides abscessus. The experiment in a line: Antimicrobial activity against Mycobacterium abscessus 390S after 96 hrs. The experiment is classed as functional.
Experiment [12] concerns Mycobacteroides abscessus. The experiment in a line: Antimicrobial activity against Mycobacterium abscessus 390S infected in human monocyte-derived macrophage assessed as reduction in viable bacteria count at 10 times MIC by […]. It counts as functional, organism-based.
The test system of experiment [13] is Mycobacteroides abscessus. Kind of experiment: Bacteriostatic activity against Mycobacterium abscessus 390V infected in human monocyte-derived macrophage assessed as inhibition of planktonic cell growth at 4 ug/ml treated 24 hrs postinfection. The experiment is classed as functional, organism-based.
For experiment [14], the system named is Mycobacteroides abscessus. Kind of experiment: Antimicrobial activity against Mycobacterium abscessus 390S assessed as inhibition of biofilm formation up to 128 ug/ml treated during mid log-phase. The experiment is classed as functional.
For experiment [15], the system named is Mycobacteroides abscessus. Kind of experiment: Antimicrobial activity against Mycobacterium abscessus 390S assessed as inhibition of biofilm formation up to 512 ug/ml after 24 hrs. It counts as functional.
The test system of experiment [16] is Mycobacteroides abscessus. Kind of experiment: Antimicrobial activity against Mycobacterium abscessus 390S assessed as inhibition of biofilm formation up to 128 ug/ml treated during lag-phase measured after 24 hrs. The experiment is classed as functional, organism-based.
Experiment [17] concerns Mycobacteroides abscessus. Kind of experiment: Bacteriostatic activity against Mycobacterium abscessus 390R infected in human monocyte-derived macrophage assessed as inhibition of planktonic cell growth at 4 ug/ml treated 24 hrs postinfection. It counts as functional, organism-based.
The test system of experiment [18] is Mycobacteroides abscessus. The experiment in a line: Bacteriostatic activity against Mycobacterium abscessus 390S infected in human monocyte-derived macrophage assessed as inhibition of planktonic cell growth at 4 ug/ml treated 24 hrs postinfection. It counts as functional, organism-based.

In brackets after ≈: the same amount, converted by molar mass. Activity calls are given as the source filed them. The calls are words filed in the database; no cut-off is given here.

Regarding `NCC[C@H](O)C(=O)N[C@@H]1C[C@H](N)[C@@H](O[C@H]2O[C@H](CN)[C@@H](O)[C@H](O)[C@H]2O)[C@H](O)[C@H]1O[C@H]1O[C@H](CO)[C@@H](O)[C@H](N)[C@H]1O` [AMIKACIN], the MBC amounted to 32 µg/mL (≈ 54.6 µM) in experiment [1], 128 µg/mL (≈ 219 µM) in experiment [4], 64 µg/mL (≈ 109 µM) in experiment [5] and 64 µg/mL (≈ 109 µM) in [7]. Besides, the outcome in experiment [2] was Active. The molecule also displayed an MIC in experiment [3] of 2 µg/mL (≈ 3.42 µM). The log10cfu in [6] is reported as 1.1.
`CO[C@@]1(NC(=O)Cc2cccs2)C(=O)N2C(C(=O)O)=C(COC(N)=O)CS[C@@H]21` [CEFOXITIN]: the result in experiment [8] and in [2] was Active. Further, the MIC in experiment [9] was determined as 8 µg/mL (≈ 18.7 µM); in [10], 6.25 µg/mL (≈ 14.6 µM).
As to `CC[C@H]1OC(=O)[C@H](C)[C@@H](O[C@H]2C[C@@](C)(OC)[C@@H](O)[C@H](C)O2)[C@H](C)[C@@H](O[C@@H]2O[C@H](C)C[C@H](N(C)C)[C@H]2O)[C@](C)(OC)C[C@@H](C)C(=O)[C@H](C)[C@@H](O)[C@]1(C)O` [CLARITHROMYCIN], the MBC in experiment [1] is 16 µg/mL (≈ 21.4 µM); in experiment [4], 256 µg/mL (≈ 342 µM); in experiment [5], 16 µg/mL (≈ 21.4 µM); in experiment [7], 256 µg/mL (≈ 342 µM). Moreover, the lowest concentration to inhibit growth in experiment [11] (MIC) was 0.25 µg/mL (≈ 0.334 µM). For the same molecule, the outcome in experiment [12], in experiment [13], in experiment [17] and in [18] was Active. Besides, the log10cfu in experiment [14] is 1; in experiment [15], 0.6. Besides, the outcome in experiment [16] was inactive.
